Columns and labels:
[1] = target: T1, hyperactive mutant BKCa channels (hSlo G803D/N806K) stably expressed in AD 293 cells (Homo sapiens, UniProt Q12791, G856D/N859K); assay: Cell-based fluorescence assay (FluxOR Potassium Ion Channel Assay) of BKCa channel activation; conditions: fit of dose-response curve of initial rates; read-out: Apparent EC50 based on vi
T1 construct: expressed in transfected cells
Method: AD 293 cells, which are derivatives of the commonly used HEK 293 cell line and stably express hyperactive mutant BKCa channels (hSlo G803D/N806K) to sensitively detect the effect (Lee et al., 2013), were cultured in Dulbecco' modified Eagle medium (Hyclone, Logan, Utah, […]) supplemented with 10% fetal bovine serum, and selected with 1 mg/mL Geneticin (Gibco, Amarillo, TX, USA). 20,000 cells per well were seeded on a 96-well clear-bottom black plate (Corning, New York, NY, USA) coated with poly-D-lysine (Gibco). BKCa channel activity was measured using the cell-based fluorescence assay, FluxOR Potassium Ion Channel Assay (Thermo Fisher Scientific, Waltham, MA, USA). Experimental procedures were performed according to the manufacturer's instructions. The cells were treated with test compounds dissolved in assay buffer for 15 minutes. Fluorescence was measured using a FlexStation3 multimode microplate reader (Molecular Devices, Silicon Valley, CA, USA) and SoftMax Pro (Molecular Devices). Excitation and emission wavelengths were set to 485 nm and 528 nm, respectively. Fluorescence signals were acquired every 2 seconds for 120 seconds and normalized by the relative fluorescence unit (RFU). The efficacy of a channel activator was determined by analyzing changes (ΔRFU) in the RFU for 80 seconds after channel stimulation.
Activation effects of the synthesized compounds on BKCa channels were evaluated using cell-based fluorescence assay. NS11021 was used as the positive control. The effects were determined based on the initial rate (vi) of channel activation and the apparent EC50 value obtained from fitting data of the dose-response curve. Here, Vi means change values for 4 seconds at the start of channel opening (vi={RFU(t=24 s)−RFU(t=20 s)}/4 s). […]

[2] = system: Spontaneously hypertensive rats (SHR); assay: In vivo model of OAB: urination in spontaneously hypertensive rats after oral administration; parameters: species or system rat
Method: Male rats with body weights of 300 to 350 g were deprived of food and water overnight before the experiment, and then were randomly divided into a drug administration group and a control group. All animals were provided free access to water for 2 hours, and then 10 mL/kg of vehicle solution [DMSO:PEG400:distilled water=5:40:55 (v/v)] as a test substance were orally administered. After oral administration of the test substance, the rats were placed in a metabolic cage and the number of urinations and urine volume were measured for 3 hours.
The in vivo treatment effects of the compounds for […] were investigated in spontaneously hypertensive rats (SHR) with OAB symptoms after oral administration. Wistar-Kyoto rats (WKY) were used as the healthy animal control, and urination frequency was increased more than 2.8 times in SHR compared to WKY. Compound 208 reduced the urination frequency in SHR (50 mg/kg) by 33%, which is quite close to the urination frequency of the normal group (see FIG. 18).

T1 sequence (Q12791 whole entry G856D/N859K): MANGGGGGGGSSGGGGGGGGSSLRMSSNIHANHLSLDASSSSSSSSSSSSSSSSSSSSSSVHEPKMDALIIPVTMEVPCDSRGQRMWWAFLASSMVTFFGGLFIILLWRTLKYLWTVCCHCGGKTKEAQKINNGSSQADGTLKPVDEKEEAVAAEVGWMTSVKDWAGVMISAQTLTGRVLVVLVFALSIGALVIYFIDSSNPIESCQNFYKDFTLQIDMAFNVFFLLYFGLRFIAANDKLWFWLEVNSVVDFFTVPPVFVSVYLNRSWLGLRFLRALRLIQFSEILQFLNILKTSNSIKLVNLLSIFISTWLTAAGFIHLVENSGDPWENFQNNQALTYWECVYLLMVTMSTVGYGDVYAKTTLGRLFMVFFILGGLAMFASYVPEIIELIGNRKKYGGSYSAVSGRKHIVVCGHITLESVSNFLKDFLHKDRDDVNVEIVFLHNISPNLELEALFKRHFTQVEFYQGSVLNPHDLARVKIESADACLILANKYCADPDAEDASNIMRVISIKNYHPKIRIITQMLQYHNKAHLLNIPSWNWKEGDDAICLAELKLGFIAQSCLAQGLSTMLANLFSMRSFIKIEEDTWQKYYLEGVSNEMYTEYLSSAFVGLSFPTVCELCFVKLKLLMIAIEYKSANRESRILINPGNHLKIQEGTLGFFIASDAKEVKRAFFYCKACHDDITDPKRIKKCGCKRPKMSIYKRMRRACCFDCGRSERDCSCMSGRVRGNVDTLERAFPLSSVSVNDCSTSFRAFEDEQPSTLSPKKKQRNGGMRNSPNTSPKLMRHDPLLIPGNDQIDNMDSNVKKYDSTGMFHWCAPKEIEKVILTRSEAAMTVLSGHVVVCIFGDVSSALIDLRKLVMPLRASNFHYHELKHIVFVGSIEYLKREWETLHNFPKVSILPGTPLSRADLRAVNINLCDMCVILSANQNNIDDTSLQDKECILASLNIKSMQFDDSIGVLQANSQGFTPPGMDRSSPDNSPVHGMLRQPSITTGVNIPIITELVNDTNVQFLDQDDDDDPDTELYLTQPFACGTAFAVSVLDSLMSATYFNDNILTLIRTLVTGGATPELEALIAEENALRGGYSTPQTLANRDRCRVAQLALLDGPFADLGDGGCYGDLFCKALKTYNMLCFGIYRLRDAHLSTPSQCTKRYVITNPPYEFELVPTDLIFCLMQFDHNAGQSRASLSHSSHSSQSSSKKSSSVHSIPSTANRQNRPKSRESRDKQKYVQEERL

EC50 [1] | Structure (SMILES) | reduction of urination frequency ([2]; 50 mg/kg oral) | number of urinations ([2]; 5 mg/kg oral, 3 hours, SHR vehicle 8.2)
2890 nM | O=C(Nc1cccc(C(F)(F)F)c1)c1sc(=S)n2c1[nH]c(=O)c1cc(Br)ccc12 [Compound 208, 7-bromo-5-oxo-1-thioxo-N-(3-(trifluoromethyl)phenyl)-4,5-dihydro-1H-thiazolo[3,4-a]quinazoline-3-carboxamide] | 33% | –
– | O=C(O[C@H]1CN2CCC1CC2)N1CCc2ccccc2[C@@H]1c1ccccc1 [solifenacin succinate, reference compound] | – | 4.2
